The values that follow come from patent US20160050895A1, “TRANSGENIC NON-HUMAN ORGANISMS WITH NON-FUNCTIONAL TSPO GENES” (AUSTRALIAN NUCLEAR SCIENCE AND TECHNOLOGY ORGANIZATION, priority 2013, published 2016).

SMILES strings stand for the structures.

The subject of assay [1] is TSPO. Put plainly: Receptor film autoradiography of tissue sections with [3H]PK11195 and [125I]CLINDE. Format: binding, mouse. Conditions: spleen, kidney, testis sections from TSPO-/- mice; 3 nM [125I]CLINDE, 1 nM [3H]PK11195. As for the experimental part: Snap-frozen tissues were sectioned at 20 μm in a cryostat, thaw mounted on poly-L-lysine-coated slides and stored at −80° C. until day of experiment. On the day of the experiment, slides were thawed at room temperature and air dried with a cool stream of air. Total and non-specific binding were determined by incubation with 1 nM of 3H-PK11195 with or without the presence of 3 μM of PK11195 in 130 mM TRIS-HCl buffer (pH 7.4) at room temperature for 20 minutes. Following incubation, the slides were briefly dipped twice in 130 mM TRIS-HCl buffer, washed twice for 5 minutes in fresh 130 mM TRIS-HCl at room temperature. […] Images were analysed with Quantity One imaging analysis program (Bio-Rad, Hercules, Calif. USA); to assess the level of 3H-PK11195 binding, regions of interest were drawn over the tissue and an average optical density/mm^2 was calculated. […]
The organs including brain, retina, heart, kidney and testes used for film autoradiography were dissected from wild-type (TSPO^+/+), heterozygous (TSPO^+/−), and homozygous (TSPO^−/−) mice and snap-frozen in liquid nitrogen. […] Tritium standards (Amersham Biosciences, Uppsala, Sweden) co-exposed with the organ sections on each Hyperfilm-^3H (Kodak Film) at 4° C. for 60 days, were used to quantify the autoradiographically measured binding. […]

In assay [2] the target is T1, TSPO (Mus musculus, UniProt P50637). Put plainly: Film autoradiography of brain sections after facial nerve axotomy. Format: binding. More on the design: from tissue; host or cells: organs of living mice (adrenal gland, kidney, heart, liver, lung, brain). Conditions: TSPO+/+ animals; after facial nerve axotomy. The source says:
Procedures for facial nerve axotomy were approved by the animal ethics committee at the University of Sydney. Animals were anaesthetised using Isoflurane anaesthesia. Animals were monitored for a combination of respiration, heart rate, oxygen saturation and temperature during procedures using a variety of monitoring equipment to ensure anaesthetic depth. The surgical process commenced when foot-pad or plantar reflex could no longer be elicited. The fur on the ipsilateral (right) side of the neck was shaved from the ear downwards, and the skin cleaned using 70% ethanol. A small incision (0.5-0.7 cm in length) overlying the musculature covering the stylomastoid foramen was made. The facial nerve was identified, isolated and then transected completely. The skin of incision was closed with heal-glue. […] The animals were euthanized with CO2 3 days after the axotomy and brain tissue, including facial nerve nuclei in the brain stem and cerebellum, was immediately dissected, snap-frozen in liquid nitrogen, and then stored in −80° C. freezer until the cryostat section.
A small incision (0.5-0.7 cm) in the skin 0.5 cm dorsal and lateral to the ear was made and the facial nerve transected under an operating microscope. The incision was closed with 3M™ Vetbond™ Tissue Adhesive (St. Paul, Minn., USA). […] Mice were monitored carefully and euthanized with CO2 three days after the operation. […]

For assay [3], the target named is T1, TSPO. Nature of the assay: Receptor film autoradiography of tissue sections with [3H]PK11195 and [125I]CLINDE. The assay is classed as binding. More on the design: Snap-frozen tissues were sectioned at 20 μm in a cryostat; from tissue; host or cells: mouse organ sections (brain, retina/eye, heart, adrenal, kidney, testis, spleen), C57BL/6 background. As for the experimental part:
Snap-frozen tissues were sectioned at 20 μm in a cryostat, thaw mounted on poly-L-lysine-coated slides and stored at −80° C. until day of experiment. On the day of the experiment, slides were thawed at room temperature and air dried with a cool stream of air. Total and non-specific binding were determined by incubation with 1 nM of 3H-PK11195 with or without the presence of 3 μM of PK11195 in 130 mM TRIS-HCl buffer (pH 7.4) at room temperature for 20 minutes. Following incubation, the slides were briefly dipped twice in 130 mM TRIS-HCl buffer, washed twice for 5 minutes in fresh 130 mM TRIS-HCl at room temperature. The slides were finally briefly rinsed 3 times in chilled distilled H2O, dried under a cool stream of air and allowed to air dried overnight. Sections were exposed to Kodak BioMax MR film along with tritium microscales with known activity concentrations in X-ray film cassettes. Films were developed after 33 days and digitized using a GS800 Calibrated Densitometer (Bio-Rad, Hercules, Calif., USA). Images were analysed with Quantity One imaging analysis program (Bio-Rad, Hercules, Calif. USA); to assess the level of 3H-PK11195 binding, regions of interest were drawn over the tissue and an average optical density/mm^2 was calculated. Data obtained from an individual film, subject to interfilm variations, were normalized against other films through the optical density oftritium microscales.
The organs including brain, retina, heart, kidney and testes used for film autoradiography were dissected from wild-type (TSPO^+/+), heterozygous (TSPO^+/−), and homozygous (TSPO^−/−) mice and snap-frozen in liquid nitrogen. Cryostat organ sections at 18 μm were placed onto superfrost slides (Menzel-Glaser, Braunschweig, Germany) and stored in the dark at −20° C. for no longer than 1 week before the experiment. […] Tritium standards (Amersham Biosciences, Uppsala, Sweden) co-exposed with the organ sections on each Hyperfilm-^3H (Kodak Film) at 4° C. for 60 days, were used to quantify the autoradiographically measured binding. The hyperfilm was developed using Kodak GBX developer and fixer (Sigma Aldrich, St. Louis, Mo., U.S.A.). The hyperfilm was air-dried overnight before being scanned using the ArtixScan 1800f flatbed scanner (Microtek, Hsinchu, Taiwan), with greyscale using a magnification of 400% and an optical resolution of 2400 pixels per inch. No pre-scanning manipulation or filter was applied.
Tissue sections from TSPO^+/+, TSPO^+/− and TSPO^−/− mice were incubated at room temperature for 20 min in 170 mM Tris-HCl pH 7.4 containing 1 nM [^3H]PK11195 (specific activity 84 Ci/mmol; Perkin Elmer, Waltham, Mass., USA), washed twice for 5 min in 170 mM Tris-HCl, rinsed with 3 dips in ice-cold MilliQ H2O, and dried. […] Displacement binding was carried out in the presence of PK11195 (10 μM), CLINDE (10 μM) and PBR-11 (10 μM).

Regarding `CC[C@@H](C)N(C)C(=O)c1cc2ccccc2c(-c2ccccc2Cl)n1` [[^3H]PK11195], in the assay on TSPO [1], the “binding in TSPO-/- tissue” value was “at background level and not displaceable”. The “TSPO ligand binding in the injured facial nucleus” value on TSPO [2] is on record as “localised induction of TSPO ligand binding”. Besides, the “selectivity for TSPO” value on TSPO [3] (in vitro, validated against TSPO-/- null background) is “high selectivity”. Moreover, the “Specific binding in tissue sections” value on TSPO [3] (spleen, kidney, testis sections from TSPO+/+ and TSPO+/- mice, 3 nM [125I]CLINDE, 1 nM [3H]PK11195) is recorded as “clearly visible”.
